Here are results for one compound from patent publication US20160209428A1, “DIAGNOSTIC AND PREDICTIVE METABOLITE PATTERNS FOR DISORDERS AFFECTING THE BRAIN AND NERVOUS SYSTEM” (THE REGENTS OF THE UNIVERSITY OF CALIFORNIA, priority 2013, published 2016).

SMILES strings stand for the structures. A value given as a limit tells only on which side of the number the result lay.

For data set [1], the system named is Fragile X (Fmr1) knockout mouse. The data set is described as follows: T-maze spontaneous alternation (novelty preference), Fragile X model. Type of data set: in vivo. The settings on record: Fmr1 KO mice, weekly suramin 20 mg/kg ip.
From the text: A preference for novelty was estimated as spontaneous alternation behavior in the T-maze.
In the next data set the test system is cerebral synaptosomes. Briefly: Synaptosome isolation and ultrastructure (electron microscopy). Type of data set: in vivo, mouse. To be noted: suramin-treated Fmr1 KO mice. The source says:
Cerebral samples were collected, homogenized and synaptosomes isolated by discontinuous Percoll gradient centrifugation, drop dialyzed, glutaraldehyde fixed, post-fixed in osmium tetroxide, embedded, sectioned, and stained with uranyl acetate for transmission electron microscopy. Samples from the FVB control animals (+/−suramin) were not available for study by either electron microscopy or Western analysis.
In the present study of the Fragile X model, saline-treated Fmr1 knockout mice had cerebral synaptosomes that also contained an electron dense matrix, and fragile, hypomorphic post-synaptic densities.

Data set [2] concerns maternal immune activation (MIA) mouse model. The data set is described as follows: Social approach (social preference), MIA model. Type of data set: in vivo. The method, then: To initiate the MIA model, pregnant dams were given two intraperitoneal injections of Poly(I:C) (Potassium salt; Sigma-Aldrich, St. Louis, Mo., USA, Cat no. P9582; >99% pure; <1% mononucleotide content). These were quantified by UV spectrophotometry. One unit (U) of poly(IC) was defined as 1 absorbance unit at 260 nm. Typically, 1U=12 μg of RNA. 0.25U/g [3 mg kg^−1] of poly(IC) was given on E12.5 and 0.125U g^−1 (1.5 mg kg^−1) on E17.5 as previously described. Contemporaneous control pregnancies were produced by timed matings and randomized assignment of pregnant dams to saline injection (5 μl g^−1 intraperitoneally (i.p.)) on E12.5 and E17.5.
Offspring of timed matings were weaned at 3-4 weeks of age into cages of two to four animals. No mice were housed in isolation. Only males were evaluated in these studies. Littermates were identified by ear tags and distributed into different cages in order to minimize litter and dam effects. To avoid chance differences in groups selected for single-dose treatment, the saline and poly(IC) exposure groups were each balanced according to their social approach scores at 2.25 months. […] Beginning 2 days later, behaviors were evaluated. […]
Social behavior in mice can be quantified as the time spent interacting with a novel (‘stranger’) mouse compared with the total time spent interacting with either a mouse or a novel inanimate object.

Data set [3] shares this test system. The data set is described as follows: Rotarod (latency to fall), MIA model. Type of data set: in vivo. The settings on record: MIA 6-month-old adults, single injection of suramin. The source says: (N=8-13, 6.75-month-old males per group).
Previous studies have shown age-dependent, postnatal loss of cerebellar Purkinje cells in the MIA model. This can reach up to 60% of Purkinje cells lost by 4 months (16 weeks) of age. Motor coordination measured by rotarod performance is deficient in the MIA model and is critically dependent on the integrity of Purkinje cell circuits in the cerebellum. Since Purkinje cells are known to be lost in MIA animals by 4 months (16 weeks) of age, it was hypothesized that APT given later in life would have no effect. The results confirmed this. […] Although cerebellar Purkinje cell density was not quantified in this study, our results are consistent with the notion that once Purkinje cells are lost, their function cannot be restored by APT in adult animals.

Data set [4] in a line: Suramin quantitation in plasma and brain tissues by LC-MS/MS. It is filed as in vivo, mouse. The method, then:
Offspring of timed matings were weaned at 3-4 weeks of age into cages of two to four animals. No mice were housed in isolation. Only males were evaluated in these studies. Littermates were identified by ear tags and distributed into different cages in order to minimize litter and dam effects. […] Beginning 2 days later, behaviors were evaluated.
Tissue samples (brainstem, cerebrum and cerebellum) were ground into powder under liquid nitrogen in a pre-cooled mortar. Powdered tissue (15-50 mg) was weighed and mixed with the internal standard trypan blue to a final concentration of 5 μM (pmol mg^−1) and incubated at room temperature for 10 min to permit metabolite interaction with binding proteins. Nine volumes of methanol:acetonitrile:H2O (43:43:16) pre-chilled to −20° C. was added to produce a final solvent ratio of 40:40:20, and the samples were deproteinated and macromolecules removed by precipitation on crushed ice for 30 min. The mixture was centrifuged at 16 000 g for 10 min at 4° C. and the supernatant was transferred to a new tube and kept at −80° C. for further LC-MS/MS (liquid chromatography-tandem mass spectrometry) analysis. For plasma, 90 μl was used, to which 10 μl of 50 μM stock of trypan blue was added to achieve an internal standard concentration of 5 μM. This was incubated at room temperature for 10 min to permit metabolite interaction with binding proteins, then extracted with 4 volumes (400 μl) of pre-chilled methanol:acetonitrile (50:50) to produce a final concentration of 40:40:20 (methanol:acetonitrile:H2O) and precipitated on ice for 10 min. Other steps were the same as for solid tissue extraction.
Ten microliters of extract were injected onto a Kinetix pentafluorophenyl column (150×2.1 mm, 2.6 μm; Phenomenex, Torrance, Calif., USA) held at 30° C. for chromatographic separation. The mobile phase A was water with 20 mM ammonium acetate (NH4OAC; pH 7) and mobile phase B was methanol with 20 mM NH4OAC (pH 7). […] The flow rate was 300 μl min^−1. All the samples were kept at 4° C. during analysis. […] The electrospray ionization source parameters were set as follows: source temperature 500° C.; curtain gas 30; ion source gas 1, 35; ion source gas 2 35; spray voltage −4500V. Analyst 1.6.1 was used for data acquisition and analysis. N=4-6 per tissue. Results are reported as means±s.e.m. in absolute μM (pmol μl^−1) concentration for plasma, and pmol mg^−1 wet weight for tissues.
After completing the behavioral studies described above, mass spectrometry was used to measure drug levels in plasma, cerebrum, cerebellum and brainstem following a 5-week period of drug washout.

The conditions of data set [5]: mice, after a single dose; cited from earlier work.
[6] abbreviates: 2 days after 20 mg kg^−1 i.p., control (Sal-Sur) or MIA (PIC-Sur) animals.

Turning to `Cc1ccc(C(=O)Nc2ccc(S(=O)(=O)O)c3cc(S(=O)(=O)O)cc(S(=O)(=O)O)c23)cc1NC(=O)c1cccc(NC(=O)Nc2cccc(C(=O)Nc3cc(C(=O)Nc4ccc(S(=O)(=O)O)c5cc(S(=O)(=O)O)cc(S(=O)(=O)O)c45)ccc3C)c2)c1` [Suramin, suramin], the “deficient novelty preference (spontaneous alternation in T-maze)” value in data set [1] is on record as “normalized”. Moreover, the cerebral synaptosome ultrastructure entry in the data set on cerebral synaptosomes was “near-normal appearing cerebral synaptosomes”. The social abnormalities result in data set [2] (6.5-month-old MIA adults, single dose suramin 20 mg kg^−1 i.p.) is listed as “completely reversed”. Further, the “social behavior five weeks after suramin washout” value in data set [2] (MIA animals, 5 weeks after single dose) is given as “small residual benefit”. In addition, the “motor coordination (rotarod)” value in data set [3] is reported as “failed to restore normal motor coordination”. Moreover, the brainstem suramin in data set [4] (2 days after 20 mg kg^−1 i.p.) was 5.15 pmol/mg. For the same compound, in data set [4] (setting [6]), the suramin in cerebellum is listed as < 0.10 pmol mg^−1 wet weight and the suramin in cerebrum is on record as < 0.10 pmol mg^−1 wet weight. Besides, the “suramin in any tissue (plasma, cerebrum, cerebellum, brainstem)” value in data set [4] (after 5 weeks of drug washout) is listed as “No suramin was detected”. The same compound returned a concentration at 2 days in data set [4] (male, mouse, plasma, ip, 2 days after 20 mg kg^−1 i.p.) of 7.64 µM. In addition, the plasma half-life in data set [5] is on record as 1 week.
